According to paper PMC10505102 (Cellular and Molecular Life Sciences: CMLS, 2023):
Where a SMILES comes first, the peptide text is derived from it. Bridges are numbered along the chain shown (N, C = ends).

Columns and labels:
[1] = test system: C2C12 myotubes, 3T3-L1 adipocytes, and HEPG2 cells; test: Glucose uptake with Akt inhibitor GSK690693; format: cell-based; details: 2.5 µM GSK690693 1 h; 20 µM aM1 24 h pretreated or 100 nM insulin 30 min
Experimental: (§1) The relative glucose uptake in each group is expressed as fold-change relative to the respective PBS-treated control groups.
(§2) Akt activation-mediated signaling was inhibited using the Akt-inhibitor GSK690693. Hydroxy-2-naphthalenylmethylphosphonic acid (HNMPA) was used to block insulin receptor activation. […] PBS was used for mock-treated groups. All experiments had at least three independent replicates.
(§3) Assays were performed in triplicate.

[2] = test system: C2C12-myotubes, 3T3-L1-adipocytes, and HEPG2 cells; test: Glucose uptake with insulin receptor inhibitor HNMPA; format: cell-based; details: 100 µM HNMPA 1 h; 100 nM insulin 30 min
Experimental: as §1, §2, §3

[3] = test system: 3T3-L1 cells; details: 3T3-L1, aM1 up to 100 µM, 24 h, n=3
Experimental: (§4) The MTT-containing culture medium was aspirated, and the formazan crystals were dissolved in DMSO for colorimetric quantification at 570 nm using a microplate reader (Tecan Magellan™, Switzerland) with a reference wavelength of 630 nm. DMSO was used as vehicle control, and 1% Triton X-100 was used as a cytotoxicity-inducing agent (positive control). Experimental triplicates were used for statistical analyses. […]
(§5) including an alkaline environment (ammonium bicarbonate buffer, pH 8) with trypsin (A) and chymotrypsin (B) and simulated gastric fluid (0.1N HCl, pH 1.2) with pepsin f or 4h at 37°C (C) and respective buffers were used as vehicle controls. Peptide quantif ication was perf ormed using RP-HPLC, and data are shown as mean (± SD), calculated from experimental triplicates.
(§6) 48h, and intact peptides were quantif ied using RP-HPLC. PBS was used as vehicle control.
(§7) Data are presented as mean (± SD), calculated from individual experimental triplicates. E) […]
(§8) Triton X 100 (TX -100) was used as a positive control f or cell death. (n=3, unpaired multiple t- […]
(§9) F) LDH release-based cytotoxicity and plasma membrane damaging analysis of […]
(§10) (n=3, unpaired multiple t-test with Holm-

[4] = test system: C2C12 cells; details: C2C12, aM1 up to 100 µM, 24 h, n=3
Experimental: as §4, §5, §6, §7, §8, §9, §10

[5] = test system: HEPG2 cells; details: HEPG2, aM1 up to 100 µM, 24 h, n=3
Experimental: as §4, §5, §6, §7, §8, §9, §10

[6] = test system: mammalian cells; details: aM1 up to 100 µM, 24 h, n=3
Experimental: DMSO was used as the vehicle control. […]
as §5, §6, §7, §8, §9, §10

[7] = test system: CHO-K1 cells; details: concentrations up to 200 µM; cited from earlier work
[8] = test system: insulin-resistant 3T3-L1-adipocytes; test: 2-NBDG glucose uptake, fluorometric; format: cell-based, mouse; details: 20 µM aM1 or pioglitazone 24 h, 100 nM insulin 30 min
Experimental: 3T3-L1 cells were maintained in growth medium (high-glucose DMEM [Dulbecco's modified Eagle's medium; Gibco], 10% FBS (fetal bovine serum; Gibco) and 1% penicillin/streptomycin (Gibco)]). Confluent 3T3-L1 fibroblast cells were then incubated with MDI induction medium (1 μM dexamethasone, 0.5 mM IBMX (isobutylmethylxanthine), and 100 nM insulin in high-glucose DMEM containing 10% FBS. At 2 days post-confluence and 2 days after exposure to the MDI induction medium, the medium was replaced with 100 nM insulin containing high-glucose DMEM supplemented with 10% FBS. Thereafter, the medium was replaced with a growth medium every 2 days to maintain the cells in culture. Cells were maintained in a 100 nM insulin-containing growth medium for the insulin-resistant phenotype. Differentiation was confirmed with Oil Red to visualize lipid droplets (Fig. S13C). […]
Glucose uptake was measured using 2-NBDG, a fluorescently labeled deoxyglucose analog. […] Fluorometric quantification was performed using a microplate reader (Tecan Magellan™, Switzerland) with excitation and emission wavelengths of 467 nm and 542 nm, respectively. Protein content was measured with a BCA protein assay to normalize fluorometric results. […] Images were captured using the green fluorescence channel of a Nikon ECLIPSE Ti-S inverted microscope system (Nikon, Kanagawa, Japan). […]

[9] = test system: GLUT4; test: GLUT4 translocation assay (Myc-GLUT4-mCherry C2C12); format: cell-based, mouse; details: 20 μM aM1 24 h; 100 nM insulin 30 min
Description: In skeletal muscles and adipocytes, insulin-induced glucose uptake is predominantly mediated by GLUT4 glucose transporters. […] We determined GLUT4-mediated glucose uptake using a stable C2C12 cell line expressing Myc-GLUT4-mCherry fusion protein that has a Myc epitope attached to the first N-terminal exofacial loop in GLUT4 and a mCherry fusion at the GLUT4 C terminus that allows detection of membrane-embedded GLUT4 under nonpermeabilized conditions (Fig. S6D).
The GLUT4 translocation assay was adapted from a published protocol. The pEGFP-myc-GLUT4-mCherry recombinant construct for GLUT4 fusion protein was generated using the pLenti-myc-GLUT4-mCherry plasmid (Addgene plasmid #64049). C2C12 cells were transfected with the recombinant plasmid using a Lipofectamine 3000 Transfection Kit (Thermo Scientific, USA). Stably transfected cells were selected and grown for further assays. […] The positive control group was treated with 100 nM insulin for 30 min, and the mock control was treated with PBS. After treatment, the culture medium was aspirated, and the cells were washed three times with PBS. Nonpermeabilized cells were immediately fixed with 10% formalin for 30 min, washed, and blocked with 1% BSA for 1 h at RT. After blocking, the cells were incubated with Alexa Fluor 488-conjugated c-Myc antibodies overnight at 4 °C. […]

[10] = test system: PI3K/Akt signaling in wild-type C2C12 myotubes; test: Western blot of PI3K/Akt signaling; details: WT C2C12 myotubes; aM1 24 h; insulin 30 min
Experimental: C–D Data in each group were normalized with respect to GAPDH expression and stated as fold-change relative to PBS control cells for WT C2C12-myotubes (panel C) and IR C2C12-myotubes (panel D).
(§11) Each protein sample (30 µg) was resolved on a 10% acrylamide gel and transferred onto a PVDF membrane. Immunoblotting was performed using anti-protein antibodies and detected with an ECL system.

[11] = test system: PI3K/Akt signaling in wild-type 3T3-L1 adipocytes; test: Western blot of PI3K/Akt signaling; details: WT 3T3-L1 adipocytes
Experimental: as §11
Data in each g roup were normalized and expressed as a fold of PBS-
treated respective control cells. Each bar represents mean ± SD ( n=3, analysis of variance
(ANOVA) with Tukey's multiple comparisons test). *p<0.05 versus PBS-control groups and
#p<0.05 versus INS-treated groups.

[12] = test system: C2C12 cells; test: Glucose consumption assay (colorimetric); details: C2C12, 1 h; 20 µM aM1 (24 h pretreated) or 100 nM insulin; glucose assay kit, n = 3
Experimental: Glucose consumption was estimated by depleting glucose levels of the growth medium using a glucose assay kit. […] Relative glucose uptake was measured in wild-type (top) and insulin-resistant (bottom) C2C12-myotubes and 3T3-L1-adipocytes using a 2NBDG uptake assay to estimate the glucose consumption of cells treated with the respective compounds.
Glucose consumption was estimated by measuring the depletion of glucose levels in the growth medium over time. Glucose quantification was carried out using a glucose assay kit (Sigma, USA). […] After glucose introduction, glucose levels in the culture medium at 0 and 60 min were estimated colorimetrically at an absorbance wavelength of 570 nm. The protein content of each well was measured with a BCA protein assay to normalize glucose uptake results. Statistical significance was calculated based on three individual assays.

[13] = test system: IRS1/2 in insulin-resistant C2C12 myotubes; test: Western blot of IRS1/2 level and IRS1 phosphorylation; details: IR myotubes; insulin 30 min, with or without aM1 24 h pretreatment
Experimental: A Western blots showing the relative protein levels of IRS1/2 in insulin-resistant (IR.) C2C12-myotubes. […] B IRS1/2 gene expression analyzed by RT-qPCR under respective experimental conditions. Data for each group were normalized and represented the fold change relative to the PBS control group. […] Western blots of IRS1 at S318 (C) and S1101 D phosphorylation levels.
as §11

[14] = test system: Akt in insulin-resistant-C2C12 myotubes; test: Western blot of insulin-mediated Akt phosphorylation after aM1 pretreatment; details: IR myotubes, no aM1 pretreatment
Description: A Relative insulin sensitivity in insulin-resistant (IR) myotubes and adipocytes. […] Glucose uptake of cells after insulin stimulation was quantified using a 2NBDG assay to estimate relative insulin sensitivity, which is expressed as the mean value (± SD) of three independent experimental replicates (analysis of variance (ANOVA) with Sidak's multiple comparisons test). *p < 0.05 compared to PBS control and ^#p < 0.05 compared to INS control. […] GAPDH served as a loading control. […] E RT-qPCR analysis of normal proximal insulin signaling genes in IR myotubes. […] Data are expressed as mean ± SEM (n = 4, ANOVA with Sidak's multiple comparisons test). *p < 0.05 versus control groups
as §11

CCn1c(-c2nonc2N)nc2c(C#CC(C)(C)O)ncc(OC[C@H]3CCCNC3)c21 [GSK690693]
insulin- and aM1-mediated glucose uptake on co-treatment with GSK690693 [1]: inhibited

O=P(O)(O)C(O)c1ccc2ccccc2c1 (stereo not drawn) [HNMPA, hydroxy-2-naphthalenylmethylphosphonic acid]
insulin-mediated glucose uptake on HNMPA treatment [2]: completely blocked

CC[C@H](C)[C@H](NC(=O)[C@@H]1CSSC[C@@H]2NC(=O)[C@@H]3CCCN3C(=O)[C@@H]3CCCN3C(=O)[C@H](C(C)C)NC(=O)[C@H](CCC(=O)O)NC(=O)[C@H](Cc3ccccc3)NC(=O)[C@@H]3CCCN3C(=O)[C@H](CO)NC(=O)[C@@H]3CSSC[C@H](NC(=O)[C@H](CCCNC(=N)N)NC(=O)[C@H](CSSC[C@H](NC(=O)[C@H](CC(=O)O)NC(=O)[C@@H](N)C(C)C)C(=O)N[C@@H](CO)C(=O)NCC(=O)N[C@@H](C)C(=O)N3)NC(=O)[C@H](CC(=O)O)NC(=O)[C@H](CCCNC(=N)N)NC(=O)[C@H](CO)NC(=O)CNC2=O)C(=O)N[C@@H]([C@@H](C)CC)C(=O)N2CCC[C@H]2C(=O)N[C@@H]([C@@H](C)CC)C(=O)NCC(=O)N[C@@H](CC(C)C)C(=O)N[C@@H](C(C)C)C(=O)N[C@@H](C(C)C)C(=O)NCC(=O)N[C@@H](Cc2ccccc2)C(=O)N1)C(=O)N[C@@H](Cc1ccc(O)cc1)C(=O)N1CCC[C@H]1C(=O)N[C@H](C(=O)NCC(=O)O)[C@@H](C)O [aM1] (H-VDCSGACSPFEVPPCGSRDCRCIPIGLVVGFCIYPTG-OH; disulfide 3-20, 7-22, 15-32)
cell viability (MTT) [3]: No substantial changes in cell viability
cell viability (MTT) [4]: No substantial changes in cell viability
cell viability (MTT) [5]: No substantial changes in cell viability
LDH release (membranolytic or cytotoxic effects) [6]: no significant membranolytic or cytotoxic effects
toxicity to CHO-K1 cells [7]: no toxicity

CCc1ccc(CCOc2ccc(CC3SC(=O)NC3=O)cc2)nc1 (stereo not drawn) [pioglitazone]
increase in glucose uptake relative to untreated cells [8]: 1.6 fold

insulin
increase in glucose uptake relative to untreated cells [8]: remained at basal levels
surface GLUT4 (anti-Myc fluorescence, nonpermeabilized cells) vs PBS control [9]: increased amounts of GLUT4 at the cell surface
total Akt expression [10]: no significant differences
PDK1 phosphorylation at Ser242 [11]: significant increase
total Akt expression [11]: no significant differences
Akt phosphorylation at Ser473, increase relative to untreated cells ([11]; n=3): expected Akt phosphorylation was observed
Akt phosphorylation at Thr308, increase relative to untreated cells ([11]; n=3): expected Akt phosphorylation was observed
increase in glucose consumption compared to untreated control cells [12]: similar
IRS1 phosphorylation at Ser318 [13]: increased significantly
phosphorylated Akt levels after insulin stimulation alone [14]: remained at basal levels
